Experimental data as given in patent publication US12077503B2, “Substituted cyclic amides and their use as herbicides” (FMC CORPORATION, priority 2015, dated 2024).

Key:
Format in all cases: in vivo
[1] = tested on: redroot pigweed (Amaranthus retroflexus); assay: Test G Pre-Emergence Protocol; details: Amaranthus retroflexus, pre-emergence, 312 h, evaluated after 13 days; for pest or weed control at 15.625 g/ha: 15.625 g ai/ha; for pest or weed control at 15.625 g/ha / pest or weed control at 250 g/ha: read-out: Pigweed, Redroot damage rating (100=total damage to plant; 0=no damage to plant); for pest or weed control at 62.5 g/ha: 62.5 g ai/ha, 100=total damage to plant, 0=no damage to plant, read-out: plant damage rating, Pigweed, Redroot; for pest or weed control at 250 g/ha: 250 g ai/ha
Outline: (§1)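 Seeds were sown in standard soil and kept one day in a glasshouse (24/16° C day/night, 14 h light, 65% humidity), then sprayed with compound in acetone/water (50:50) containing 0.5% Tween 20 at 15.625, 62.5 or 250 g/ha. Damage was scored after 13 days (0 = none, 100 = total).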

[2] = tested on: ivy-leaved morning glory (Ipomoea hederacea); assay: Test G Pre-Emergence Protocol; details: Ipomoea, pre-emergence, 312 h, evaluated after 13 days; for pest or weed control at 15.625 g/ha: 15.625 g ai/ha, read-out: Morning-glory, Ivy-leaved damage rating (100=total damage to plant; 0=no damage to plant); for pest or weed control at 62.5 g/ha: 62.5 g ai/ha, 100=total damage to plant, 0=no damage to plant, read-out: plant damage rating, Morningglory, Ivy-leaved; for pest or weed control at 250 g/ha: 250 g ai/ha, read-out: Morningglory, Ivy-leaved damage rating (100=total damage to plant; 0=no damage to plant)
Outline: as §1

[3] = tested on: barnyardgrass (Echinochloa crus-galli); assay: Test G Pre-Emergence Protocol; details: Echinochloa crus-galli, pre-emergence, 312 h, evaluated after 13 days; for pest or weed control at 15.625 g/ha: 15.625 g ai/ha, read-out: Barnyard grass damage rating (100=total damage to plant; 0=no damage to plant); for pest or weed control at 62.5 g/ha: 62.5 g ai/ha, 100=total damage to plant, 0=no damage to plant, read-out: plant damage rating, Barnyardgrass; for pest or weed control at 250 g/ha: 250 g ai/ha, read-out: Barnyardgrass damage rating (100=total damage to plant; 0=no damage to plant)
Outline: as §1

[4] = tested on: giant foxtail (Setaria faberi); assay: Test G Pre-Emergence Protocol; details: Setaria faberi, pre-emergence, 312 h, evaluated after 13 days; for pest or weed control at 15.625 g/ha: 15.625 g ai/ha; for pest or weed control at 15.625 g/ha / pest or weed control at 250 g/ha: read-out: Foxtail, Giant damage rating (100=total damage to plant; 0=no damage to plant); for pest or weed control at 62.5 g/ha: 62.5 g ai/ha, 100=total damage to plant, 0=no damage to plant, read-out: plant damage rating, Foxtail, Giant; for pest or weed control at 250 g/ha: 250 g ai/ha
Outline: as §1

[5] = tested on: velvetleaf (Abutilon theophrasti); assay: Test G Pre-Emergence Protocol; details: Abutilon theophrasti, pre-emergence, 312 h, evaluated after 13 days; for pest or weed control at 15.625 g/ha: 15.625 g ai/ha; for pest or weed control at 15.625 g/ha / pest or weed control at 250 g/ha: read-out: Velvetleaf damage rating (100=total damage to plant; 0=no damage to plant); for pest or weed control at 62.5 g/ha: 62.5 g ai/ha, 100=total damage to plant, 0=no damage to plant, read-out: plant damage rating, Velvetleaf; for pest or weed control at 250 g/ha: 250 g ai/ha
Outline: as §1

corn (Zea mays) [6] = assay: Test G Pre-Emergence Protocol; details: Zea mays, pre-emergence, 312 h, evaluated after 13 days; for plant injury at 15.625 g/ha: 15.625 g ai/ha; for plant injury at 15.625 g/ha / plant injury at 250 g/ha: read-out: Corn damage rating (100=total damage to plant; 0=no damage to plant); for plant injury at 62.5 g/ha: 62.5 g ai/ha, 100=total damage to plant, 0=no damage to plant, read-out: plant damage rating, Corn; for plant injury at 250 g/ha: 250 g ai/ha
Outline: as §1

[7] = tested on: redroot pigweed (Amaranthus retroflexus); assay: Test G Post-Emergence Protocol; details: Amaranthus retroflexus, post-emergence, 312 h; for pest or weed control at 15.625 g/ha: 15.625 g ai/ha, evaluated after 13 days (100=total damage to plant; 0=no damage to plant), read-out: Pigweed, Redroot damage rating; for pest or weed control at 62.5 g/ha: 62.5 g ai/ha, read-out: Pigweed, Redroot damage rating (100=total damage to plant; 0=no damage to plant); for pest or weed control at 62.5 g/ha / pest or weed control at 250 g/ha: evaluated after 13 days; for pest or weed control at 250 g/ha: 250 g ai/ha, read-out: damage to plant, Pigweed, Redroot (100=total damage to plant; 0=no damage to plant)
Outline: (§2)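 Foliar application was made 8 days after sowing, using an aqueous spray of the active in acetone/water (50:50) with 0.5% Tween 20, at doses of 15.625, 62.5 or 250 g/ha. Injury was assessed 13 days later, where 100 meant the plant was fully damaged.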

[8] = tested on: ivy-leaved morning glory (Ipomoea hederacea); assay: Test G Post-Emergence Protocol; details: Ipomoea, post-emergence, 312 h; for pest or weed control at 15.625 g/ha: 15.625 g ai/ha, evaluated after 13 days (100=total damage to plant; 0=no damage to plant), read-out: Morningglory, Ivy-leaved damage rating; for pest or weed control at 62.5 g/ha: 62.5 g ai/ha, read-out: Morningglory, Ivy-leaved damage rating (100=total damage to plant; 0=no damage to plant); for pest or weed control at 62.5 g/ha / pest or weed control at 250 g/ha: evaluated after 13 days; for pest or weed control at 250 g/ha: 250 g ai/ha, read-out: damage to plant, Morningglory, Ivy-leaved (100=total damage to plant; 0=no damage to plant)
Outline: as §2

[9] = tested on: barnyardgrass (Echinochloa crus-galli); assay: Test G Post-Emergence Protocol; details: Echinochloa crus-galli, post-emergence, 312 h; for pest or weed control at 15.625 g/ha: 15.625 g ai/ha, evaluated after 13 days (100=total damage to plant; 0=no damage to plant), read-out: Barnyardgrass damage rating; for pest or weed control at 62.5 g/ha: 62.5 g ai/ha, read-out: Barnyardgrass damage rating (100=total damage to plant; 0=no damage to plant); for pest or weed control at 62.5 g/ha / pest or weed control at 250 g/ha: evaluated after 13 days; for pest or weed control at 250 g/ha: 250 g ai/ha, read-out: damage to plant, Barnyardgrass (100=total damage to plant; 0=no damage to plant)
Outline: as §2

[10] = tested on: giant foxtail (Setaria faberi); assay: Test G Post-Emergence Protocol; details: Setaria faberi, post-emergence, 312 h; for pest or weed control at 15.625 g/ha: 15.625 g ai/ha, evaluated after 13 days (100=total damage to plant; 0=no damage to plant), read-out: Foxtail, Giant damage rating; for pest or weed control at 62.5 g/ha: 62.5 g ai/ha, read-out: Foxtail, Giant damage rating (100=total damage to plant; 0=no damage to plant); for pest or weed control at 62.5 g/ha / pest or weed control at 250 g/ha: evaluated after 13 days; for pest or weed control at 250 g/ha: 250 g ai/ha, read-out: damage to plant, Foxtail, Giant (100=total damage to plant; 0=no damage to plant)
Outline: as §2

[11] = tested on: velvetleaf (Abutilon theophrasti); assay: Test G Post-Emergence Protocol; details: Abutilon theophrasti, post-emergence, 312 h; for pest or weed control at 15.625 g/ha: 15.625 g ai/ha, evaluated after 13 days (100=total damage to plant; 0=no damage to plant), read-out: Velvetleaf damage rating; for pest or weed control at 62.5 g/ha: 62.5 g ai/ha, read-out: Velvetleaf damage rating (100=total damage to plant; 0=no damage to plant); for pest or weed control at 62.5 g/ha / pest or weed control at 250 g/ha: evaluated after 13 days; for pest or weed control at 250 g/ha: 250 g ai/ha, read-out: damage to plant, Velvetleaf (100=total damage to plant; 0=no damage to plant)
Outline: as §2

corn (Zea mays) [12] = assay: Test G Post-Emergence Protocol; details: Zea mays, post-emergence, 312 h; for plant injury at 15.625 g/ha: 15.625 g ai/ha, evaluated after 13 days (100=total damage to plant; 0=no damage to plant), read-out: Corn damage rating; for plant injury at 62.5 g/ha: 62.5 g ai/ha, read-out: Corn damage rating (100=total damage to plant; 0=no damage to plant); for plant injury at 62.5 g/ha / plant injury at 250 g/ha: evaluated after 13 days; for plant injury at 250 g/ha: 250 g ai/ha, read-out: damage to plant, Corn (100=total damage to plant; 0=no damage to plant)
Outline: as §2

Row | SMILES | pest or weed control at 15.625 g/ha [1] [%] | pest or weed control at 62.5 g/ha [1] [%] | pest or weed control at 250 g/ha [1] [%] | pest or weed control at 15.625 g/ha [2] [%] | pest or weed control at 62.5 g/ha [2] [%] | pest or weed control at 250 g/ha [2] [%] | pest or weed control at 15.625 g/ha [3] [%] | pest or weed control at 62.5 g/ha [3] [%] | pest or weed control at 250 g/ha [3] [%] | pest or weed control at 15.625 g/ha [4] [%] | pest or weed control at 62.5 g/ha [4] [%] | pest or weed control at 250 g/ha [4] [%] | pest or weed control at 15.625 g/ha [5] [%] | pest or weed control at 62.5 g/ha [5] [%] | pest or weed control at 250 g/ha [5] [%] | plant injury at 15.625 g/ha (corn (Zea mays) [6]) [%] | plant injury at 62.5 g/ha (corn (Zea mays) [6]) [%] | plant injury at 250 g/ha (corn (Zea mays) [6]) [%] | pest or weed control at 15.625 g/ha [7] [%] | pest or weed control at 62.5 g/ha [7] [%] | other results
1 | CN1C[C@H](c2ccc3c(c2)CCCC3)[C@@H](C(=O)Nc2cccc(F)c2F)C1=O (racemic) [Compound 1496] | 0 | 0 | 0 | 0 | 0 | 0 | 0 | 40 | 80 | 0 | 50 | 80 | 0 | 0 | 0 | 0 | 0 | 20 | 0 | 0 | pest or weed control at 250 g/ha [7]: 0%; pest or weed control at 15.625 g/ha [8]: 0%; pest or weed control at 62.5 g/ha [8]: 0%; pest or weed control at 250 g/ha [8]: 0%; pest or weed control at 15.625 g/ha [9]: 20%; pest or weed control at 62.5 g/ha [9]: 50%; pest or weed control at 250 g/ha [9]: 60%; pest or weed control at 15.625 g/ha [10]: 20%; pest or weed control at 62.5 g/ha [10]: 60%; pest or weed control at 250 g/ha [10]: 60%; pest or weed control at 15.625 g/ha [11]: 0%; pest or weed control at 62.5 g/ha [11]: 0%; pest or weed control at 250 g/ha [11]: 20%; plant injury at 15.625 g/ha (corn (Zea mays) [12]): 10%; plant injury at 62.5 g/ha (corn (Zea mays) [12]): 20%; plant injury at 250 g/ha (corn (Zea mays) [12]): 50%
2 | CN1C[C@H](c2ccc(C(F)(F)F)cc2)[C@@H](C(=O)Nc2cccc(C(F)F)c2)C1=O (racemic) [Compound 1498] | 0 | 0 | 0 | 0 | 0 | 0 | 0 | 0 | 20 | 0 | 0 | 10 | 0 | 0 | 0 | 0 | 0 | 0 | 0 | 0 | pest or weed control at 250 g/ha [7]: 0%; pest or weed control at 15.625 g/ha [8]: 0%; pest or weed control at 62.5 g/ha [8]: 0%; pest or weed control at 250 g/ha [8]: 0%; pest or weed control at 15.625 g/ha [9]: 0%; pest or weed control at 62.5 g/ha [9]: 0%; pest or weed control at 250 g/ha [9]: 30%; pest or weed control at 15.625 g/ha [10]: 0%; pest or weed control at 62.5 g/ha [10]: 0%; pest or weed control at 250 g/ha [10]: 30%; pest or weed control at 15.625 g/ha [11]: 0%; pest or weed control at 62.5 g/ha [11]: 0%; pest or weed control at 250 g/ha [11]: 0%; plant injury at 15.625 g/ha (corn (Zea mays) [12]): 0%; plant injury at 62.5 g/ha (corn (Zea mays) [12]): 0%; plant injury at 250 g/ha (corn (Zea mays) [12]): 0%
